Key:
[1] = system: plants regenerated from the S-2 cell line; assay: Whole plant sethoxydim spray, greenhouse, S-2 regenerated plants; format: in vivo, maize
Source text: Groups of eight control (2167-9/2160-154 unselected) and eight S-2 plants were sprayed with either 0.0, 0.01, 0.05, 0.11, 0.22 or 0.44 kg/ha sethoxydim to determine whole plant sethoxydim-tolerance of greenhouse-grown plants. Control plants were killed by 0.05 kg/ha or more sethoxydim.

[2] = system: progeny of 2167-9/2160-154 control plants; assay: Sethoxydim treatment of progeny seedlings, greenhouse; format: in vivo, maize; conditions: seedlings treated at 3-4 leaf stage, rated two weeks after treatment
Procedure: Seeds obtained by the crossing procedure described above were viable and germinated normally. Seeds from thirty S-2 selfed plants and fifteen 2167-9/2160-154 control plants were planted in 25×50 cm trays of soil (28 seeds from each plant in one tray) and grown in the greenhouse. Seedlings at the 3-4 leaf stage were treated with 0.1, 0.44, and 1.1 kg/ha sethoxydim and evaluated for visual herbicide damage and shoot height. Based on visual rating of herbicide damage two weeks after treatment, selfed progeny of S-2 plants segregated approximately 1:2:1 for healthy, uninjured plants: to plants showing partial injury: to dead plants, respectively, at 0.44 and 1.1 kg/ha sethoxydim treatments. All control progeny of 2167-9/2160-154 control plants were killed by 0.1 kg/ha and greater levels of sethoxydim. […] Similar tests were conducted on progeny of S-2 plants crossed to the other inbreds. In all cases, these test cross progeny treated with 0.44 kg/ha sethoxydim segregated 1:1 for growing shoots versus dead shoots whether S-2 plants were used as male or female parents. […] In all cases, control plants crossed to the other inbreds were killed and therefore sethoxydim-sensitive.

CCCC(=NOCC)C1=C(O)CC(CC(C)SCC)CC1=O (stereo not shown) [Sethoxydim, 2-[1-(ethoxyimino)-butyl]-5-[2-(ethylthio)propyl]-3-hydroxy-2-cyclohexen-1-one]
Survival of S-2 plants ([1]; 0.44 kg/ha sethoxydim): survived
Shoot height of regenerated S-2 plants ([1]; 14 days after treatment with 0.44 kg/ha sethoxydim): only slightly reduced
Fold more tolerance of S-2 plants than control ([1]; whole plant spray): at least 20 fold
Rate that killed all control progeny [2]: ≥ 0.1 kg/ha

From patent publication US6414222B1, “Gene combinations for herbicide tolerance in corn” (Regents of the University of Minnesota, priority 1993, dated 2002)
